The record followed here is patent US20150329558A1, “FUSED HETEROCYCLIC COMPOUNDS AS ION CHANNEL MODULATORS” (Gilead Sciences, Inc., priority 2011, published 2015).

In assay [1] the target is T1, hNav1.1 (Homo sapiens, UniProt P35498).
T1 construct: expressed in transfected cells; host or cells: HEK293, transient transfection (α1:β1:β2 = 10:1:1)
The assay is described as follows: Nav1.1 use-dependent block, whole-cell voltage clamp. It counts as cell-based. The following applies: use-dependent block 10 Hz, read-out: NAv1.1*-CHAN TEST-UDB-10 HZ-.

For assay [2], the target named is T2, Human Nav1.2 (Homo sapiens, UniProt Q99250).
T2 construct: expressed in transfected cells
In words: Nav1.2 use-dependent block, whole-cell voltage clamp. It counts as cell-based. The following applies: use-dependent block 10 Hz, read-out: NAv1.2*-CHAN TEST-UDB-10 HZ-. An excerpt:
Wild-type (WT) cDNA stably transfected in Chinese hamster ovary (CHO) cells is used to record INa. Unless otherwise noted, all reagents are purchased from Sigma-Aldrich (St Louis, Mo., U.S.A.).
Whole-cell voltage-clamp recordings are used to measure the biophysical properties of WT. Briefly, the pipette solution consists of (in mM) 110 CsF, 10 NaF, 20 CsCl, 2 EGTA, 10 HEPES, with a pH of 7.35 and osmolarity of 300 mOsmol/kg. The bath (control) solution contains in (mM): 145 NaCl, 4 KCl, 1.8 CaCl2, 1 MgCl2, 10 dextrose, 10 HEPES, with a pH of 7.35 and osmolarity of 310 mOsmol/kg. Cells are allowed to stabilize for 10 min after establishment of the whole-cell configuration before current is measured. Series resistance is compensated 90% to assure that the command potential is reached within microseconds with a voltage error <2 mV. Leak currents are subtracted by using an online P/4 procedure and all currents are low-pass Bessel filtered at 5 kHz and digitized at 50 kHz.
Tonic block of peak current is measured using a step to −10 mV (20 ms) from a holding potential of −120 mV (0.2 Hz). Use-dependent block of peak current is measured during pulse number 300 of a pulse train (−10 mV, 5 ms, 300 pulses, 10 Hz or 25 Hz) from a holding potential of −120 mV. Two sequential pulse train stimulations are averaged to obtain mean current traces for each recording condition, which are then used for offline subtraction and analysis.
For use-dependent studies, cells are stimulated with depolarizing pulse trains (−10 mV, 5 ms, 300 pulses, 10 and 25 Hz) from a holding potential of −120 mV. Currents are then normalized to the peak current recorded in response to the first pulse in each frequency train. For tonic block studies, peak current is evaluated in response to a 20 ms depolarization to −10 mV (0.2 Hz). Data analysis is performed using Clampfit 9.2 (Axon Instruments, Union City, Calif., U.S.A), Excel 2002 (Microsoft, Seattle, Wash., U.S.A.), and OriginPro 7.0 (OriginLab, Northampton, Mass., U.S.A) software. Results are presented as mean±SEM.
A stock solution of 10 mM compound of Formula I is prepared in 0.1 M HCl or DMSO. A fresh dilution of the compound of Formula I in the bath solution is prepared every experimental day and the pH is readjusted to 7.35 as necessary. The final DMSO concentration was kept at 0.1% in all solutions. Direct application of the perfusion solution to the clamped cell is achieved using the Perfusion Pencil system (Automate, Berkeley, Calif.). Direct cell perfusion is driven by gravity at a flow rate of 350 μL/min using a 250 micron tip. This system sequesters the clamped cell within a perfusion stream and enables complete solution exchange within 1 second. The clamped cell is perfused continuously starting immediately after establishing the whole-cell configuration. Control currents are measured during control solution perfusion.
Solutions are perfused for three minutes prior to current recordings to allow equilibrium (tonic) drug block. Tonic block of peak currents is measured from this steady-state condition. Three sequential current traces are averaged to obtain a mean current for each recording. The mean current traces are utilized for offline analysis. Use-dependent block of peak current is measured during pulse number 300 of the pulse train, (−10 mV, 5 ms, 300 pulses, 10 Hz) from a holding potential of −120 mV. Two sequential pulse train stimulations are averaged to obtain mean current traces for each recording condition, which are then used for offline subtraction and analysis. Where appropriate, concentration inhibition curves are fit with the Hill equation: I/Imax=1/[1+10̂(log IC50−I)*k], where IC50 is the concentration that produces half inhibition and k is the Hill slope factor.

T2 sequence (Q99250 whole entry): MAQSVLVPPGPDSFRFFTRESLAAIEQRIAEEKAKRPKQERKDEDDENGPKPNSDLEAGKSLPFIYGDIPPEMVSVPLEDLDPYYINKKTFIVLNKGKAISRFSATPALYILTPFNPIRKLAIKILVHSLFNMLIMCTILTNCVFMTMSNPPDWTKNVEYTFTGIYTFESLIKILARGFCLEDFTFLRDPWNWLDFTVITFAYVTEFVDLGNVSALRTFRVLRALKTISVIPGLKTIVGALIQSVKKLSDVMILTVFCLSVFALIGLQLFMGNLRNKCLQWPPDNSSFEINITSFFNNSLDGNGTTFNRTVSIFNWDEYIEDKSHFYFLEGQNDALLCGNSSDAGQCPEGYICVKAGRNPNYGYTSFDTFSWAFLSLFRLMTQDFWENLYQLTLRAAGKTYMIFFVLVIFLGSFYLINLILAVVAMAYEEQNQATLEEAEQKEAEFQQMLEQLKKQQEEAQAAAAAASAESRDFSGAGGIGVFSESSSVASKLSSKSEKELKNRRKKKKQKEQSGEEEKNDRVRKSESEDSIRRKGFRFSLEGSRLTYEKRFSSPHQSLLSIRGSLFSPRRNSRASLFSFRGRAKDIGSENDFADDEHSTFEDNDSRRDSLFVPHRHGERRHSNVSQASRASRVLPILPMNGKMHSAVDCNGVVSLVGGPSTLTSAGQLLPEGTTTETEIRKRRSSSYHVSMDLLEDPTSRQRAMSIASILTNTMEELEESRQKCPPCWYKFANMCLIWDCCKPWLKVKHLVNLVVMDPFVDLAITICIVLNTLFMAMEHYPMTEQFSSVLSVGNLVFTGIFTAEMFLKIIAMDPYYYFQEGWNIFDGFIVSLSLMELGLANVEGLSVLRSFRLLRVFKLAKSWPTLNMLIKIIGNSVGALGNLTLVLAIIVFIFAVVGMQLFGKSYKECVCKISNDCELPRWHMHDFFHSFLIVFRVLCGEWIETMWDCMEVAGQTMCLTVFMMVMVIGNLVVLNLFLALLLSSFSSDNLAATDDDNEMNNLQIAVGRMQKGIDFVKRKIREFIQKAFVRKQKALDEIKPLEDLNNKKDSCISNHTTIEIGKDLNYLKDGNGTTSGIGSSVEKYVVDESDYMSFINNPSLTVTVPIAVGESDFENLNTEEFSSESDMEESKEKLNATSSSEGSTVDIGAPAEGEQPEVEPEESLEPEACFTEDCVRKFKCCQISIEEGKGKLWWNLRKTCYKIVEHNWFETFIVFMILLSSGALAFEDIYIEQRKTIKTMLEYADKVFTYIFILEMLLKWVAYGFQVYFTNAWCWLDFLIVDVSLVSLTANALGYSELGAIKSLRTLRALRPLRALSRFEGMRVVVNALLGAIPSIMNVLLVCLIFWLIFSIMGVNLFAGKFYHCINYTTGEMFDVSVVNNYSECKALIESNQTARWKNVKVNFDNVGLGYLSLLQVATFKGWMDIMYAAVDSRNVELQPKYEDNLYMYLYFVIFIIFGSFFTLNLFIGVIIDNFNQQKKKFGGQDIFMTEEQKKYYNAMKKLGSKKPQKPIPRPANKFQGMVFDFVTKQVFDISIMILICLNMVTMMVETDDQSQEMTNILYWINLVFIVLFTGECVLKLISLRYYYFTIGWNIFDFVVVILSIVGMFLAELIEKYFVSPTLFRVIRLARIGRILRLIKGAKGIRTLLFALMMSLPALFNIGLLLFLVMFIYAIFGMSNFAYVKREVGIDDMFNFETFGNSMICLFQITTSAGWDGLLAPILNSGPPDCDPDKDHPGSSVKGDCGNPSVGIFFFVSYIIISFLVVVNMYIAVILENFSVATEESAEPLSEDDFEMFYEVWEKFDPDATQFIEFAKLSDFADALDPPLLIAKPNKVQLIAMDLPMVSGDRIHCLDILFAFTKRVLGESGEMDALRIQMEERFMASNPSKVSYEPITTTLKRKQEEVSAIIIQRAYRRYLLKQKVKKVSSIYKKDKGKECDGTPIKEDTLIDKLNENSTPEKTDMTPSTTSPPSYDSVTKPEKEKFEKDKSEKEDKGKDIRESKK

For the molecule `Cc1noc(Cn2nnc3ccc(-c4ccc(OC(F)(F)F)cc4)cc3c2=O)n1` [II-3, 3-((3-methyl-1,2,4-oxadiazol-5-yl)methyl)-6-(4-(trifluoromethoxy)phenyl)benzo[d][1,2,3]triazin-4(3H)-one], the results for the inhibition at 1 µM in assay [1] and in assay [2] were -6% and -3.2%, respectively.

In the case of `O=c1c2cc(-c3ccc(OC(F)(F)F)cc3)ccc2nnn1CCOc1ncccn1` [II-32, 3-(2-(pyrimidin-2-yloxy)ethyl)-6-(4-(trifluoromethoxy)phenyl)benzo[d][1,2,3]triazin-4(3H)-one], the inhibition at 1 µM in assay [1] is 21%; in assay [2], 16.9%.

For `N#Cc1ccnc(OCCn2nnc3ccc(-c4ccc(OC(F)(F)F)cc4)cc3c2=O)n1` [II-36, 2-(2-(4-oxo-6-(4-(trifluoromethoxy)phenyl)benzo[d][1,2,3]triazin-3(4H)-yl)ethoxy)pyrimidine-4-carbonitrile], the inhibition at 1 µM in assay [1] amounted to 7.9%; in assay [2], 10.9%.

As to `O=c1c2cc(-c3ccc(OC(F)(F)F)cc3)ccc2nnn1C1CCNCC1` [II-38, 3-(piperidin-4-yl)-6-(4-(trifluoromethoxy)phenyl)benzo[d][1,2,3]triazin-4(3H)-one], the values for the inhibition at 1 µM in assay [1] and in assay [2] were -1% and 8%, respectively.

Take `Cc1ncc(Cn2nnc3ccc(-c4ccc(OC(F)(F)F)cc4)cc3c2=O)o1` [II-95, 3-((2-methyloxazol-5-yl)methyl)-6-(4-(trifluoromethoxy)phenyl)benzo[d][1,2,3]triazin-4(3H)-one]: the inhibition at 1 µM in assay [1] is -0.5%; in assay [2] it was -8.2%.

Turning to `O=c1c2cc(-c3ccc(OC(F)(F)F)cc3)ccc2cnn1Cc1ncccn1` [III-5, 2-(pyrimidin-2-ylmethyl)-7-(4-(trifluoromethoxy)phenyl)phthalazin-1(2H)-one], the inhibition at 1 µM in assay [1] came to 9.3%; in assay [2] it was 5.5%.

As to `O=c1c2cc(-c3ccc(OC(F)(F)F)cc3)ccc2cnn1CCn1cccn1` [III-9, 2-(2-(1H-pyrazol-1-yl)ethyl)-7-(4-(trifluoromethoxy)phenyl)phthalazin-1(2H)-one], the inhibition at 1 µM in assay [1] was determined as 7.1%; in assay [2] it was 3.5%.

Consider `COc1cc(OC)nc(Cn2ncc3ccc(-c4ccc(OC(F)(F)F)cc4)cc3c2=O)n1` [III-19, 2-((4,6-dimethoxypyrimidin-2-yl)methyl)-7-(4-(trifluoromethoxy)phenyl)phthalazin-1 (2H)-one], for which the inhibition at 1 µM was 19.3% in assay [1] and -6% in assay [2].

Turning to `O=c1c2cc(-c3ccc(OC(F)(F)F)cc3)ccc2cnn1CCOc1ncccn1` [III-28, 2-(2-(pyrimidin-2-yloxy)ethyl)-7-(4-(trifluoromethoxy)phenyl)phthalazin-1 (2H)-one], the inhibition at 1 µM in assay [1] worked out at 40.5%; in assay [2], 28.8%.

For the molecule `Cc1noc(Cn2cnc3ccc(-c4ccc(OC(F)(F)F)cc4)cc3c2=O)n1` [IV-6, 3-((3-methyl-1,2,4-oxadiazol-5-yl)methyl)-6-(4-(trifluoromethoxy)phenyl)quinazolin-4(3H)-one], the inhibition at 1 µM in assay [1] worked out at 3.1%; in assay [2] it was 7.1%.

For the molecule `Cc1nc(Cn2cnc3ccc(-c4ccc(OC(F)(F)F)cc4)cc3c2=O)no1` [IV-9, 3-((5-methyl-1,2,4-oxadiazol-3-yl)methyl)-6-(4-(trifluoromethoxy)phenyl)quinazolin-4(3H)-one], the figures for the inhibition at 1 µM in assay [1] and in assay [2] were -6.5% and 8%, respectively.

`O=C1c2cc(-c3ccc(OC(F)(F)F)cc3)ccc2CCN1Cc1ncccn1` [IX-1, 2-(pyrimidin-2-ylmethyl)-7-(4-(trifluoromethoxy)phenyl)-3,4-dihydroisoquinolin-1(2H)-one]: the figures for the inhibition at 1 µM in assay [1] and in assay [2] were -5.9% and 3.8%, respectively.

With `O=C1c2cc(-c3ccc(C(F)(F)F)cc3)ccc2CCN1Cc1ncccn1` [IX-3, 2-(pyrimidin-2-ylmethyl)-7-(4-(trifluoromethyl)phenyl)-3,4-dihydroisoquinolin-1(2H)-one], the inhibition at 1 µM in assay [1] is 2.9%; in assay [2], -4.1%.

Take `O=C(c1ncccn1)N1CCc2ccc(-c3ccc(C(F)(F)F)cc3)cc2C1` [IX-7, pyrimidin-2-yl(7-(4-(trifluoromethyl)phenyl)-3,4-dihydroisoquinolin-2(1H)-yl)methanone]: the inhibition at 1 µM in assay [1] was determined as 2.02%; in assay [2] it was 8.62%.

For `O=C(c1cccnn1)N1CCc2ccc(-c3ccc(C(F)(F)F)cc3)cc2C1` [IX-17, Pyridazin-3-yl(7-(4-(trifluoromethyl)phenyl)-3,4-dihydroisoquinolin-2 (1H)-yl) methanone], the inhibition at 1 µM in assay [1] came out at 1.5%; in assay [2], 10.4%.

With `Cn1cnc(C(=O)N2CCc3ccc(-c4ccc(C(F)(F)F)cc4)cc3C2)c1` [IX-39, (1-methyl-1H-imidazol-4-yl)(7-(4-(trifluoromethyl)phenyl)-3,4-dihydroisoquinolin-2(1H)-yl)methanone], the values for the inhibition at 1 µM in assay [1] and in assay [2] were 1.5% and 16.8%, respectively.

With `O=C1c2cc(-c3ccc(C(F)(F)F)cc3)ccc2OCN1Cc1ccccn1` [VIII-1, 3-(pyridin-2-ylmethyl)-6-(4-(trifluoromethyl)phenyl)-2H-benzo[e][1,3]oxazin-4(3H)-one], the inhibition at 1 µM in assay [1] was 4.4%; in assay [2], 16%.

As for `O=C1c2cc(-c3ccc(OC(F)(F)F)cc3)ccc2OCN1Cc1ccccn1` [VIII-3, 3-(pyridin-2-ylmethyl)-6-(4-(trifluoromethoxy)phenyl)-2H-benzo[e][1,3]oxazin-4(3H)-one], the figures for the inhibition at 1 µM in assay [1] and in assay [2] were 3.1% and 11.7%, respectively.

Consider `CC1Oc2ccc(-c3ccc(OC(F)(F)F)cc3)cc2C(=O)N1Cc1ncccn1` (stereo not shown) [VIII-7, 2-methyl-3-(pyrimidin-2-ylmethyl)-6-(4-(trifluoromethoxy)phenyl)-2H-benzo[e][1,3]oxazin-4(3H)-one], for which the inhibition at 1 µM was determined as 12.1% in assay [1] and 18.2% in assay [2].

With `O=C1c2cc(-c3ccc(OC(F)(F)F)cc3)ccc2OCN1Cc1ncccn1` [VIII-20, 3-(pyrimidin-2-ylmethyl)-6-(4-(trifluoromethoxy)phenyl)-2H-benzo[e][1,3]oxazin-4(3H)-one], the figures for the inhibition at 1 µM in assay [1] and in assay [2] were 11% and 17.6%, respectively.
